The record followed here is the supplement of paper PMC10307832.

Common to all, as to experiment: relative viability (nuclei count vs DMSO), 5 days (fraction); higher = more cells survive
Compound in the experiment “Afatinib + Navitoclax”: CN(C)C/C=C/C(=O)Nc1cc2c(Nc3ccc(F)c(Cl)c3)ncnc2cc1O[C@H]1CCOC1 [Afatinib] + CC1(C)CCC(c2ccc(Cl)cc2)=C(CN2CCN(c3ccc(C(=O)NS(=O)(=O)c4ccc(N[C@H](CCN5CCOCC5)CSc5ccccc5)c(S(=O)(=O)C(F)(F)F)c4)cc3)CC2)C1 [Navitoclax] (partner 0.5 µM)
A digest of the protocol: (§1)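 After 5 days of treatment, lung cancer cells in 1536-well plates were fixed and stained in a single step (final 0.05% Triton X-100, 1% formaldehyde, 1 ug/ml Hoechst) and their nuclei counted on 4× images. Treatment had been applied by pin tool the day after seeding as one drug alone or as a fixed anchor-drug dose with five library-drug doses (not always all listed) in √10 steps. Relative viability is the nuclei count of treated wells divided by that of vehicle wells, and values are medians of duplicate plates.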

Compound in the experiment “Afatinib + Trametinib”: CN(C)C/C=C/C(=O)Nc1cc2c(Nc3ccc(F)c(Cl)c3)ncnc2cc1O[C@H]1CCOC1 [Afatinib] + CC(=O)Nc1cccc(-n2c(=O)n(C3CC3)c(=O)c3c(Nc4ccc(I)cc4F)n(C)c(=O)c(C)c32)c1 [Trametinib] (partner 0.02 µM)
A digest of the protocol: as §1

Compound in the experiment “Afatinib + Phenformin”: CN(C)C/C=C/C(=O)Nc1cc2c(Nc3ccc(F)c(Cl)c3)ncnc2cc1O[C@H]1CCOC1 [Afatinib] + N=C(N)NC(=N)NCCc1ccccc1 [Phenformin] (partner 250 µM)
A digest of the protocol:
as §1

Compound in the experiment “Afatinib + Pemetrexed”: CN(C)C/C=C/C(=O)Nc1cc2c(Nc3ccc(F)c(Cl)c3)ncnc2cc1O[C@H]1CCOC1 [Afatinib] + Nc1nc2[nH]cc(CCc3ccc(C(=O)N[C@@H](CCC(=O)O)C(=O)O)cc3)c2c(=O)[nH]1 [Pemetrexed] (partner 0.2 µM)
In short, it runs like this:
as §1

Consider LOU-NH91, for which the relative viability worked out at 0.402 in the experiment with Afatinib + Navitoclax (first compound 0.005 µM); 0.39 with Afatinib + Navitoclax (first compound 0.01581 µM); 0.441 in the experiment with Afatinib + Navitoclax (first compound 0.05 µM); 0.348 with Afatinib + Navitoclax (first compound 0.1581 µM); 0.402 in the experiment with Afatinib + Navitoclax (first compound 0.5 µM); 0.718 with Afatinib + Trametinib (first compound 0.005 µM). Moreover, the relative viability in the experiment with Afatinib + Trametinib (first compound 0.01581 µM) was 0.683; in the experiment with Afatinib + Trametinib (first compound 0.05 µM), 0.718; in the experiment with Afatinib + Trametinib (first compound 0.1581 µM), 0.671; in the experiment with Afatinib + Trametinib (first compound 0.5 µM), 0.727; in the experiment with Afatinib + Phenformin (first compound 0.005 µM) it was 0.342; with Afatinib + Phenformin (first compound 0.01581 µM) it was 0.45. Further, the relative viability in the experiment with Afatinib + Phenformin (first compound 0.05 µM) amounted to 0.477; with Afatinib + Phenformin (first compound 0.1581 µM), 0.394; with Afatinib + Phenformin (first compound 0.5 µM) it was 0.548; with Afatinib + Pemetrexed (first compound 0.005 µM), 0.371; with Afatinib + Pemetrexed (first compound 0.01581 µM) it was 0.424; in the experiment with Afatinib + Pemetrexed (first compound 0.05 µM) it was 0.393. Also, the relative viability with Afatinib + Pemetrexed (first compound 0.1581 µM) came out at 0.433; in the experiment with Afatinib + Pemetrexed (first compound 0.5 µM), 0.418.

With NCI-H2347, the relative viability with Afatinib + Navitoclax (first compound 0.005 µM) was found to be 0.932; with Afatinib + Navitoclax (first compound 0.01581 µM) it was 0.79; in the experiment with Afatinib + Navitoclax (first compound 0.05 µM) it was 0.873; with Afatinib + Navitoclax (first compound 0.1581 µM) it was 0.903; with Afatinib + Navitoclax (first compound 0.5 µM) it was 0.804; with Afatinib + Trametinib (first compound 0.005 µM), 0.27. The relative viability turned out to be 0.292 with Afatinib + Trametinib (first compound 0.01581 µM); 0.277 with Afatinib + Trametinib (first compound 0.05 µM); 0.275 with Afatinib + Trametinib (first compound 0.1581 µM); 0.283 with Afatinib + Trametinib (first compound 0.5 µM); 0.357 with Afatinib + Phenformin (first compound 0.005 µM); 0.456 with Afatinib + Phenformin (first compound 0.01581 µM). Further, the relative viability with Afatinib + Phenformin (first compound 0.05 µM) was 0.31; with Afatinib + Phenformin (first compound 0.1581 µM) it was 0.381; with Afatinib + Phenformin (first compound 0.5 µM) it was 0.415; in the experiment with Afatinib + Pemetrexed (first compound 0.005 µM) it was 0.401; with Afatinib + Pemetrexed (first compound 0.01581 µM) it was 0.414; with Afatinib + Pemetrexed (first compound 0.05 µM) it was 0.426. The relative viability with Afatinib + Pemetrexed (first compound 0.1581 µM) was 0.45; with Afatinib + Pemetrexed (first compound 0.5 µM), 0.392.

NCI-H2126: the relative viability was 0.836 with Afatinib + Navitoclax (first compound 0.005 µM); 0.854 in the experiment with Afatinib + Navitoclax (first compound 0.01581 µM); 0.829 in the experiment with Afatinib + Navitoclax (first compound 0.05 µM); 0.441 with Afatinib + Navitoclax (first compound 0.1581 µM); 0.411 with Afatinib + Navitoclax (first compound 0.5 µM); 0.529 with Afatinib + Trametinib (first compound 0.005 µM). Also, the relative viability came out at 0.585 in the experiment with Afatinib + Trametinib (first compound 0.01581 µM); 0.493 in the experiment with Afatinib + Trametinib (first compound 0.05 µM); 0.462 in the experiment with Afatinib + Trametinib (first compound 0.1581 µM); 0.459 in the experiment with Afatinib + Trametinib (first compound 0.5 µM); 0.584 in the experiment with Afatinib + Phenformin (first compound 0.005 µM); 0.509 in the experiment with Afatinib + Phenformin (first compound 0.01581 µM). For the same cell line, the relative viability turned out to be 0.485 with Afatinib + Phenformin (first compound 0.05 µM); 0.434 with Afatinib + Phenformin (first compound 0.1581 µM); 0.483 with Afatinib + Phenformin (first compound 0.5 µM); 0.715 with Afatinib + Pemetrexed (first compound 0.005 µM); 0.66 in the experiment with Afatinib + Pemetrexed (first compound 0.01581 µM); 0.623 in the experiment with Afatinib + Pemetrexed (first compound 0.05 µM). Besides, the relative viability with Afatinib + Pemetrexed (first compound 0.1581 µM) was 0.469; in the experiment with Afatinib + Pemetrexed (first compound 0.5 µM), 0.45.

As to HCC-827, the relative viability in the experiment with Afatinib + Navitoclax (first compound 0.005 µM) came out at 0.173; in the experiment with Afatinib + Navitoclax (first compound 0.01581 µM), 0.168; with Afatinib + Navitoclax (first compound 0.05 µM) it was 0.157; in the experiment with Afatinib + Navitoclax (first compound 0.1581 µM), 0.18; with Afatinib + Navitoclax (first compound 0.5 µM), 0.147; in the experiment with Afatinib + Trametinib (first compound 0.005 µM) it was 0.16. Also, the relative viability is 0.165 with Afatinib + Trametinib (first compound 0.01581 µM); 0.179 in the experiment with Afatinib + Trametinib (first compound 0.05 µM); 0.161 in the experiment with Afatinib + Trametinib (first compound 0.1581 µM); 0.15 in the experiment with Afatinib + Trametinib (first compound 0.5 µM); 0.137 in the experiment with Afatinib + Phenformin (first compound 0.005 µM); 0.119 in the experiment with Afatinib + Phenformin (first compound 0.01581 µM). In addition, the relative viability in the experiment with Afatinib + Phenformin (first compound 0.05 µM) came to 0.152; with Afatinib + Phenformin (first compound 0.1581 µM) it was 0.119; with Afatinib + Phenformin (first compound 0.5 µM), 0.137; with Afatinib + Pemetrexed (first compound 0.005 µM), 0.118; in the experiment with Afatinib + Pemetrexed (first compound 0.01581 µM), 0.157; in the experiment with Afatinib + Pemetrexed (first compound 0.05 µM), 0.153. The relative viability with Afatinib + Pemetrexed (first compound 0.1581 µM) amounted to 0.153; with Afatinib + Pemetrexed (first compound 0.5 µM), 0.159.

For NCI-H3122, the relative viability with Afatinib + Navitoclax (first compound 0.005 µM) came to 1.02; with Afatinib + Navitoclax (first compound 0.01581 µM), 0.976; with Afatinib + Navitoclax (first compound 0.05 µM) it was 1.05; with Afatinib + Navitoclax (first compound 0.1581 µM) it was 0.91; with Afatinib + Navitoclax (first compound 0.5 µM), 1.03; with Afatinib + Trametinib (first compound 0.005 µM), 0.186. For the same cell line, the relative viability with Afatinib + Trametinib (first compound 0.01581 µM) was determined as 0.192; with Afatinib + Trametinib (first compound 0.05 µM), 0.224; in the experiment with Afatinib + Trametinib (first compound 0.1581 µM), 0.248; with Afatinib + Trametinib (first compound 0.5 µM) it was 0.223; with Afatinib + Phenformin (first compound 0.005 µM), 0.385; with Afatinib + Phenformin (first compound 0.01581 µM), 0.382. The relative viability in the experiment with Afatinib + Phenformin (first compound 0.05 µM) came out at 0.415; with Afatinib + Phenformin (first compound 0.1581 µM), 0.363; with Afatinib + Phenformin (first compound 0.5 µM), 0.423; with Afatinib + Pemetrexed (first compound 0.005 µM) it was 0.206; with Afatinib + Pemetrexed (first compound 0.01581 µM) it was 0.196; with Afatinib + Pemetrexed (first compound 0.05 µM), 0.199. Also, the relative viability with Afatinib + Pemetrexed (first compound 0.1581 µM) and in the experiment with Afatinib + Pemetrexed (first compound 0.5 µM) was 0.187 each time.

For HOP-62, the relative viability in the experiment with Afatinib + Navitoclax (first compound 0.005 µM) is 1.3; with Afatinib + Navitoclax (first compound 0.01581 µM) it was 1.09; with Afatinib + Navitoclax (first compound 0.05 µM), 1.19; with Afatinib + Navitoclax (first compound 0.1581 µM) it was 1.11; in the experiment with Afatinib + Navitoclax (first compound 0.5 µM), 1.09; with Afatinib + Trametinib (first compound 0.005 µM), 0.354. The relative viability with Afatinib + Trametinib (first compound 0.01581 µM) was determined as 0.38; with Afatinib + Trametinib (first compound 0.05 µM), 0.419; with Afatinib + Trametinib (first compound 0.1581 µM), 0.333; in the experiment with Afatinib + Trametinib (first compound 0.5 µM) it was 0.378; in the experiment with Afatinib + Phenformin (first compound 0.005 µM) it was 0.862; with Afatinib + Phenformin (first compound 0.01581 µM), 0.561. Also, the relative viability was 0.748 with Afatinib + Phenformin (first compound 0.05 µM); 0.719 with Afatinib + Phenformin (first compound 0.1581 µM); 0.629 with Afatinib + Phenformin (first compound 0.5 µM); 0.305 with Afatinib + Pemetrexed (first compound 0.005 µM); 0.302 with Afatinib + Pemetrexed (first compound 0.01581 µM); 0.328 with Afatinib + Pemetrexed (first compound 0.05 µM). The relative viability came to 0.338 with Afatinib + Pemetrexed (first compound 0.1581 µM) and 0.292 with Afatinib + Pemetrexed (first compound 0.5 µM).

Turning to HCC-44, the relative viability with Afatinib + Navitoclax (first compound 0.005 µM) was determined as 1.01; with Afatinib + Navitoclax (first compound 0.01581 µM) it was 1.01; in the experiment with Afatinib + Navitoclax (first compound 0.05 µM), 1.02; with Afatinib + Navitoclax (first compound 0.1581 µM), 0.899; with Afatinib + Navitoclax (first compound 0.5 µM), 1.13; with Afatinib + Trametinib (first compound 0.005 µM) it was 1.04. The relative viability with Afatinib + Trametinib (first compound 0.01581 µM) was found to be 1.09; in the experiment with Afatinib + Trametinib (first compound 0.05 µM) it was 1.01; with Afatinib + Trametinib (first compound 0.1581 µM), 1.04; in the experiment with Afatinib + Trametinib (first compound 0.5 µM) it was 1.12; with Afatinib + Phenformin (first compound 0.005 µM), 0.233; in the experiment with Afatinib + Phenformin (first compound 0.01581 µM), 0.184. In addition, the relative viability was 0.232 with Afatinib + Phenformin (first compound 0.05 µM); 0.395 with Afatinib + Phenformin (first compound 0.1581 µM); 0.239 with Afatinib + Phenformin (first compound 0.5 µM); 0.654 with Afatinib + Pemetrexed (first compound 0.005 µM); 0.645 with Afatinib + Pemetrexed (first compound 0.01581 µM); 0.733 with Afatinib + Pemetrexed (first compound 0.05 µM). In addition, the relative viability amounted to 0.657 with Afatinib + Pemetrexed (first compound 0.1581 µM) and 0.661 with Afatinib + Pemetrexed (first compound 0.5 µM).
